The source of these data is US20110021570A1, “PYRIDONE GLUCOKINASE ACTIVATORS” (priority 2009, published 2011).

The structures appear in SMILES notation.

This test addresses T1, Recombinant human liver GK1 (GST-GK) (Homo sapiens, UniProt P35557).
T1 construct: made in house; host or cells: E. coli
T1 sequence (P35557 1-466 isoform P35557-2): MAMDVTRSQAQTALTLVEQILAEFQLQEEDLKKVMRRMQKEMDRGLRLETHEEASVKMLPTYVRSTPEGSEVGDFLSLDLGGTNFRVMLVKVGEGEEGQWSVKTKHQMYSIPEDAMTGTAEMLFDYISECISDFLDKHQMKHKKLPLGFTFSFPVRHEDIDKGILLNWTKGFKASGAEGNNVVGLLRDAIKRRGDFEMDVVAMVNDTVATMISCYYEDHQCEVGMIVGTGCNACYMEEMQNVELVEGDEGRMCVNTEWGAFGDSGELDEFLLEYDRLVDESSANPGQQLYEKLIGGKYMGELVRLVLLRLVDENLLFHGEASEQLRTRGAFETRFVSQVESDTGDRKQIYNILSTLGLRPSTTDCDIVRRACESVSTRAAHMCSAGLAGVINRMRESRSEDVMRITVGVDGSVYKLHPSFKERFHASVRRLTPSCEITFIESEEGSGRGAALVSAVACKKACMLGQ
Description: Glucokinase in vitro assay (G6PDH-coupled, NADH generation). Type of test: biochemical. To be noted: concentration of activator that produced a 50% increase in the activity of GK; 5 mM D-glucose, 30° C., pH 7.1. The method, then: Glucokinase In Vitro Assay Protocol: Glucokinase (GK) was assayed by coupling the production of glucose-6-phosphate to the generation of NADH with glucose-6-phosphate dehydrogenase (G6PDH, 0.75-1 kunits/mg; Boehringer Mannheim, Indianapolis, Ind.) from Leuconostoc mesenteroides as the coupling enzyme:
Recombinant human liver GK1 was expressed in E. coli as a glutathione S-transferase fusion protein (GST-GK) [Liang et al, 1995] and was purified by chromatography over a glutathione-Sepharose 4B affinity column using the procedure provided by the manufacturer (Amersham Pharmacia Biotech, Piscataway, N.J.).
The assay was conducted at 30° C. in a flat bottom 96-well tissue culture plate from Costar (Cambridge, Mass.) with a final incubation volume of 120 μL. The incubation reaction contained the following: 25 mM Hepes buffer (pH 7.1), 25 mM KCl, 5 mM D-glucose, 1 mM ATP, 1.8 mM NAD, 2 mM MgCl2, 1 μM sorbitol-6-phosphate, 1 mM dithiothreitol, test drug or 10% DMSO, ˜7 units/ml G6PDH, and GK (see below). All organic reagents were >98% pure and were from Boehringer Mannheim with the exceptions of D-glucose and Hepes which were from Sigma Chemical Co, St Louis, Mo. Test compounds were dissolved in DMSO and were added to the incubation reaction minus GST-GK in a volume of 12 μL to yield a final DMSO concentration of 10%. This mix was pre-incubated in the temperature controlled chamber of a SPECTRAmax 250 microplate spectrophotometer (Molecular Devices Corporation, Sunnyvale, Calif.) for 10 minutes to allow temperature equilibrium and then the reaction was started by the addition of […].
After addition of enzyme, the increase in optical density (OD) at 340 nm was monitored spectrophotometrically to determine the rate of change (OD340 per min). The GK activity (0D340/min) in control wells (10% DMSO minus GK activators) was compared with the activity in wells containing test GK activators, and the concentration of activator that produced a 50% increase in the activity of GK, i.e., the SC1.5, was calculated. The table below provides the in vitro glucokinase activity for the compounds in the Examples: […]
As to `Cc1c(Cl)cccc1Oc1ccn(C(CC(C)C)C(=O)Nc2ccn(C)n2)c(=O)c1` (stereo not drawn) [Example 12, 2-[4-(3-Chloro-2-methyl-phenoxy)-2-oxo-2H-pyridin-1-yl]-4-methyl-pentanoic acid (1-methyl-1H-pyrazol-3-yl)-amide], the SC1.5 average is 9.0 µM.

Turning to `CC(C)CC(C(=O)Nc1ccn(C)n1)n1ccc(Oc2ccccc2)cc1=O` (stereo not drawn) [Example 3, 4-Methyl-2-(2-oxo-4-phenoxy-2H-pyridin-1-yl)-pentanoic acid (1-methyl-1H-pyrazol-3-yl)-amide], the SC1.5 average is 21.7 µM.

For the molecule `CC(C)CC(C(=O)Nc1ccn(C)n1)n1ccc(Oc2ccccc2F)cc1=O` (stereo not drawn) [Example 17, 2-[4-(2-Fluoro-phenoxy)-2-oxo-2H-pyridin-1-yl]-4-methyl-pentanoic acid (1-methyl-1H-pyrazol-3-yl)-amide], the SC1.5 average turned out to be 8.4 µM.

In the case of `CC(C)CC(C(=O)Nc1ccn(C)n1)n1ccc(Oc2cccc(F)c2F)cc1=O` (stereo not drawn) [Example 1, 2-[4-(2,3-Difluoro-phenoxy)-2-oxo-2H-pyridin-1-yl]-4-methyl-pentanoic acid (1-methyl-1H-pyrazol-3-yl)-amide], the SC1.5 average was determined as 10.4 µM.

Regarding `Cc1ccccc1Oc1ccn(C(CC(C)C)C(=O)Nc2ccn(C)n2)c(=O)c1` (stereo not drawn) [Example 4, 4-Methyl-2-(2-oxo-4-o-tolyloxy-2H-pyridin-1-yl)-pentanoic acid (1-methyl-1H-pyrazol-3-yl)-amide], the SC1.5 average was 7.3 µM.

Turning to `CC(C)CC(C(=O)Nc1ccn(C)n1)n1ccc(Oc2c(F)cccc2F)cc1=O` (stereo not drawn) [Example 5, 2-[4-(2,6-Difluoro-phenoxy)-2-oxo-2H-pyridin-1-yl]-4-methyl-pentanoic acid (1-methyl-1H-pyrazol-3-yl)-amide], the SC1.5 average came to 4.2 µM.

In the case of `CC(C)CC(C(=O)Nc1ccn(C)n1)n1ccc(Oc2cccc(F)c2)cc1=O` (stereo not drawn) [Example 2, 2-[4-(3-Fluoro-phenoxy)-2-oxo-2H-pyridin-1-yl]-4-methyl-pentanoic acid (1-methyl-1H-pyrazol-3-yl)-amide], the SC1.5 average is above 30 µM.

With `CC(C)CC(C(=O)Nc1ccn(C)n1)n1ccc(Oc2cccc3ccccc23)cc1=O` (stereo not drawn) [Example 14, 4-Methyl-2-[4-(naphthalen-1-yloxy)-2-oxo-2H-pyridin-1-yl]-pentanoic acid (1-methyl-1H-pyrazol-3-yl)-amide], the SC1.5 average was determined as 2.6 µM.

Consider `CC(C)CC(C(=O)Nc1ccn(C)n1)n1ccc(Oc2ccccc2C(F)(F)F)cc1=O` (stereo not drawn) [Example 6, 4-Methyl-2-[2-oxo-4-(2-trifluoromethyl-phenoxy)-2H-pyridin-1-yl]-pentanoic acid (1-methyl-1H-pyrazol-3-yl)-amide], for which the SC1.5 average was found to be 11.4 µM.

Consider `CC(C)CC(C(=O)Nc1ccn(C)n1)n1ccc(Oc2cccnc2)cc1=O` (stereo not drawn) [Example 8, 4-Methyl-2-[2-oxo-4-(pyridin-3-yloxy)-2H-pyridin-1-yl]-pentanoic acid (1-methyl-1H-pyrazol-3-yl)-amide], for which the SC1.5 average stood at 26.1 µM.

`CC(C)CC(C(=O)Nc1ccn(C)n1)n1ccc(Oc2ccccc2C(C)C)cc1=O` (stereo not drawn) [Example 10, 2-[4-(2-Isopropyl-phenoxy)-2-oxo-2H-pyridin-1-yl]-4-methyl-pentanoic acid (1-methyl-1H-pyrazol-3-yl)-amide]: the SC1.5 average was 4.5 µM.

In the case of `CC(C)CC(C(=O)Nc1ccn(C)n1)n1ccc(Oc2ccc(F)cc2F)cc1=O` (stereo not drawn) [Example 11, 2-[4-(2,4-Difluoro-phenoxy)-2-oxo-2H-pyridin-1-yl]-4-methyl-pentanoic acid (1-methyl-1H-pyrazol-3-yl)-amide], the SC1.5 average is 22.5 µM.

On to `COc1ccccc1Oc1ccn(C(CC(C)C)C(=O)Nc2ccn(C)n2)c(=O)c1` (stereo not drawn) [Example 18, 2-[4-(2-Methoxy-phenoxy)-2-oxo-2H-pyridin-1-yl]-4-methyl-pentanoic acid (1-methyl-1H-pyrazol-3-yl)-amide], for which the SC1.5 average is 8.1 µM.

As for `CC(C)CC(C(=O)Nc1ccn(C)n1)n1ccc(Oc2ccccc2OC(F)(F)F)cc1=O` (stereo not drawn) [Example 16, 4-Methyl-2-[2-oxo-4-(2-trifluoromethoxy-phenoxy)-2H-pyridin-1-yl]pentanoic acid (1-methyl-1H-pyrazol-3-yl)-amide], the SC1.5 average turned out to be 8.8 µM.

As for `CC(C)CC(C(=O)Nc1ccn(C)n1)n1ccc(Oc2ccc(F)cc2)cc1=O` (stereo not drawn) [Example 7, 2-[4-(4-Fluoro-phenoxy)-2-oxo-2H-pyridin-1-yl]-4-methyl-pentanoic acid (1-methyl-1H-pyrazol-3-yl)-amide], the SC1.5 average was above 30 µM.

On to `CC(C)CC(C(=O)Nc1ccn(C)n1)n1ccc(Oc2ccccc2-c2ccccc2)cc1=O` (stereo not drawn) [Example 9, 2-[4-(Biphenyl-2-yloxy)-2-oxo-2H-pyridin-1-yl]-4-methyl-pentanoic acid (1-methyl-1H-pyrazol-3-yl)-amide], for which the SC1.5 average was above 30 µM.

Turning to `CC(C)CC(C(=O)Nc1ccn(C)n1)n1ccc(Oc2ccccc2Cl)cc1=O` (stereo not drawn) [Example 15, 2-[4-(2-Chloro-phenoxy)-2-oxo-2H-pyridin-1-yl]-4-methyl-pentanoic acid (1-methyl-1H-pyrazol-3-yl)-amide], the SC1.5 average amounted to 6.2 µM.

As to `CC(C)CC(C(=O)Nc1ccn(C)n1)n1ccc(Oc2cc(F)ccc2F)cc1=O` (stereo not drawn) [Example 13, 2-[4-(2,5-Difluoro-phenoxy)-2-oxo-2H-pyridin-1-yl]-4-methyl-pentanoic acid (1-methyl-1H-pyrazol-3-yl)-amide], the SC1.5 average was determined as 16.6 µM.
